In ChEMBL document CHEMBL1201861, “Genomics of Drug Sensitity in Cancer screening data, Wellcome Trust Sanger Institute”:

Columns and labels:
COLO-792 = assay: cells; format: functional, cell-based; conditions: Homo sapiens
Description: SANGER: Inhibition of human COLO-792 cell growth in a cell viability assay.

COR-L105 = assay: cells; format: functional, cell-based; conditions: Homo sapiens
Description: SANGER: Inhibition of human COR-L105 cell growth in a cell viability assay.

Calu-3 = assay: cells; format: functional, cell-based; conditions: Homo sapiens;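 also: growth inhibition of human Calu-3 cells, determined with a cell viability assay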
Description: SANGER: Inhibition of human Calu-3 cell growth in a cell viability assay.

D-542MG = assay: cells; format: functional, cell-based; conditions: Homo sapiens
Description: SANGER: Inhibition of human D-542MG cell growth in a cell viability assay.

EB2 = assay: cells; format: functional, cell-based; conditions: Homo sapiens;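 also: growth inhibition of EB2 cells, read out with a cell viability assay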
Description: SANGER: Inhibition of human EB2 cell growth in a cell viability assay.

ESS-1 = assay: cells; format: functional, cell-based; conditions: Homo sapiens;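 also: growth inhibition of human ESS-1 cells, read out by a cell viability assay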
Description: SANGER: Inhibition of human ESS-1 cell growth in a cell viability assay.

GMS-10 = assay: cells; format: functional, cell-based; conditions: Homo sapiens;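 also: growth inhibition of GMS-10 cells, read out as cell viability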
Description: SANGER: Inhibition of human GMS-10 cell growth in a cell viability assay.

HCC1599 = assay: cells; format: functional, cell-based; conditions: Homo sapiens;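 also: growth inhibition of HCC1599 cells, read out in a cell viability assay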
Description: SANGER: Inhibition of human HCC1599 cell growth in a cell viability assay.

HCC1937 = assay: cells; format: functional, cell-based; conditions: Homo sapiens;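 also: growth inhibition measured with a cell viability read-out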
Description: SANGER: Inhibition of human HCC1937 cell growth in a cell viability assay.

HN = assay: cells; format: functional, cell-based; conditions: Homo sapiens
Description: SANGER: Inhibition of human HN cell growth in a cell viability assay.

HO-1-N-1 = assay: cells; format: functional, cell-based; conditions: Homo sapiens;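 also: growth inhibition of human HO-1-N-1 cells, read out with a cell viability assay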
Description: SANGER: Inhibition of human HO-1-N-1 cell growth in a cell viability assay.

HOS = assay: cells; format: functional, cell-based; conditions: Homo sapiens;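 also: growth inhibition of human HOS cells, read out with a cell viability assay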
Description: SANGER: Inhibition of human HOS cell growth in a cell viability assay.

HT-1376 = assay: cells; format: functional, cell-based; conditions: Homo sapiens
Description: SANGER: Inhibition of human HT-1376 cell growth in a cell viability assay.

HTC-C3 = assay: cells; format: functional, cell-based; conditions: Homo sapiens;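 also: inhibition of cell growth, read out with a cell viability assay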
Description: SANGER: Inhibition of human HTC-C3 cell growth in a cell viability assay.

KYSE-150 cell line = assay: cells; format: functional, cell-based; conditions: Homo sapiens;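 also: growth inhibition of human KYSE-150 cells, read out with a cell viability assay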
Description: SANGER: Inhibition of human KYSE-150 cell growth in a cell viability assay.

LK-2 = assay: cells; format: functional, cell-based; conditions: Homo sapiens;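 also: growth inhibition of LK-2 cells, read out with a viability assay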
Description: SANGER: Inhibition of human LK-2 cell growth in a cell viability assay.

LP-1 = assay: cells; format: functional, cell-based; conditions: Homo sapiens;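 also: growth inhibition of human LP-1 cells, with the read-out taken from a cell viability assay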
Description: SANGER: Inhibition of human LP-1 cell growth in a cell viability assay.

MDA-MB-231 = assay: cells; format: functional, cell-based; conditions: Homo sapiens
Description: SANGER: Inhibition of human MDA-MB-231 cell growth in a cell viability assay.

MDA-MB-415 = assay: cells; format: functional, cell-based; conditions: Homo sapiens
MFE-280 = assay: cells; format: functional, cell-based; conditions: Homo sapiens;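 also: growth inhibition of MFE-280 cells, determined with a cell viability readout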
Description: SANGER: Inhibition of human MFE-280 cell growth in a cell viability assay.

MONO-MAC-6 = assay: cells; format: functional, cell-based; conditions: Homo sapiens;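 also: cell viability assay measuring growth inhibition of human MONO-MAC-6 cells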
Description: SANGER: Inhibition of human MONO-MAC-6 cell growth in a cell viability assay.

MRK-nu-1 = assay: cells; format: functional, cell-based; conditions: Homo sapiens;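 also: cell viability assay measuring growth suppression of human MRK-nu-1 cells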
Description: SANGER: Inhibition of human MRK-nu-1 cell growth in a cell viability assay.

NB12 = assay: cells; format: functional, cell-based; conditions: Homo sapiens;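 also: growth inhibition of human NB12 cells, read out by a cell viability assay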
Description: SANGER: Inhibition of human NB12 cell growth in a cell viability assay.

NCI-H1694 = assay: cells; format: functional, cell-based; conditions: Homo sapiens;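 also: cell viability assay measuring inhibition of growth in human NCI-H1694 cells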
Description: SANGER: Inhibition of human NCI-H1694 cell growth in a cell viability assay.

NCI-H1963 = assay: cells; format: functional, cell-based; conditions: Homo sapiens;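 also: cell growth inhibition of the human line, determined with a cell viability assay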
Description: SANGER: Inhibition of human NCI-H1963 cell growth in a cell viability assay.

NCI-H2030 = assay: cells; format: functional, cell-based; conditions: Homo sapiens;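 also: growth inhibition of human NCI-H2030 cells, read out by a cell viability assay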
Description: SANGER: Inhibition of human NCI-H2030 cell growth in a cell viability assay.

NCI-H2170 = assay: cells; format: functional, cell-based; conditions: Homo sapiens;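 also: cell viability assay measuring growth inhibition of human NCI-H2170 cancer cells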
Description: SANGER: Inhibition of human NCI-H2170 cell growth in a cell viability assay.

NCI-H2228 = assay: cells; format: functional, cell-based; conditions: Homo sapiens;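 also: growth inhibition of human NCI-H2228 cells, read out by a cell viability assay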
Description: SANGER: Inhibition of human NCI-H2228 cell growth in a cell viability assay.

NCI-H345 = assay: cells; format: functional, cell-based; conditions: Homo sapiens;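 also: growth inhibition of NCI-H345 cells measured with a cell viability assay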
Description: SANGER: Inhibition of human NCI-H345 cell growth in a cell viability assay.

NCI-H522 = assay: cells; format: functional, cell-based; conditions: Homo sapiens;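 also: cell viability assay measuring growth inhibition of human NCI-H522 cells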
Description: SANGER: Inhibition of human NCI-H522 cell growth in a cell viability assay.

NCI-H596 = assay: cells; format: functional, cell-based; conditions: Homo sapiens;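 also: growth inhibition of NCI-H596 cells, read out with a cell viability assay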
Description: SANGER: Inhibition of human NCI-H596 cell growth in a cell viability assay.

NCI-H889 = assay: cells; format: functional, cell-based; conditions: Homo sapiens;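 also: cell growth inhibition of the cell line, read out with a viability assay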
Description: SANGER: Inhibition of human NCI-H889 cell growth in a cell viability assay.

NY = assay: cells; format: functional, cell-based; conditions: Homo sapiens
Description: SANGER: Inhibition of human NY cell growth in a cell viability assay.

OVCAR-5 = assay: cells; format: functional, cell-based; conditions: Homo sapiens;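 also: growth inhibition of human OVCAR-5 cells, read out with a cell viability assay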
Description: SANGER: Inhibition of human OVCAR-5 cell growth in a cell viability assay.

P31-FUJ = assay: cells; format: functional, cell-based; conditions: Homo sapiens;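 also: growth inhibition of P31-FUJ cells, read out with a viability assay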
Description: SANGER: Inhibition of human P31-FUJ cell growth in a cell viability assay.

PF-382 = assay: cells; format: functional, cell-based; conditions: Homo sapiens
Description: SANGER: Inhibition of human PF-382 cell growth in a cell viability assay.

RD = assay: cells; format: functional, cell-based; conditions: Homo sapiens
Description: SANGER: Inhibition of human RD cell growth in a cell viability assay.

RERF-LC-MS = assay: cells; format: functional, cell-based; conditions: Homo sapiens;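 also: growth inhibition of human RERF-LC-MS cells, read out by a cell viability assay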
Description: SANGER: Inhibition of human RERF-LC-MS cell growth in a cell viability assay.

RPMI-2650 = assay: cells; format: functional, cell-based; conditions: Homo sapiens
Description: SANGER: Inhibition of human RPMI-2650 cell growth in a cell viability assay.

SK-HEP1 = assay: cells; format: functional, cell-based, SK-HEP-1; conditions: Homo sapiens;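 also: cell viability readout used to quantify reduction in proliferation of human SK-HEP-1 cells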
Description: SANGER: Inhibition of human SK-HEP-1 cell growth in a cell viability assay.

SK-MEL-30 = assay: cells; format: functional, cell-based; conditions: Homo sapiens;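 also: growth inhibition of SK-MEL-30 cells, determined with a cell viability assay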
Description: SANGER: Inhibition of human SK-MEL-30 cell growth in a cell viability assay.

SK-OV-3 = assay: cells; format: functional, cell-based; conditions: Homo sapiens;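 also: growth inhibition of SK-OV-3 human cells, read out with a cell viability assay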
Description: SANGER: Inhibition of human SK-OV-3 cell growth in a cell viability assay.

SNU-449 = assay: cells; format: functional, cell-based; conditions: Homo sapiens
Description: SANGER: Inhibition of human SNU-449 cell growth in a cell viability assay.

SW1990 = assay: cells; format: functional, cell-based; conditions: Homo sapiens
Description: SANGER: Inhibition of human SW1990 cell growth in a cell viability assay.

SW626 = assay: cells; format: functional, cell-based; conditions: Homo sapiens;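 also: growth inhibition of SW626 cells, measured with a cell viability assay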
Description: SANGER: Inhibition of human SW626 cell growth in a cell viability assay.

SW756 = assay: cells; format: functional, cell-based; conditions: Homo sapiens;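 also: growth inhibition of human SW756 cells, read out with a cell viability assay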
Description: SANGER: Inhibition of human SW756 cell growth in a cell viability assay.

SiHa = assay: cells; format: functional, cell-based; conditions: Homo sapiens;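 also: Viability-based readout of growth inhibition in SiHa cells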
Description: SANGER: Inhibition of human SiHa cell growth in a cell viability assay.

TALL-1 = assay: cells; format: functional, cell-based; conditions: Homo sapiens;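 also: growth inhibition of cultured human TALL-1 cells, read out by a cell viability assay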
Description: SANGER: Inhibition of human TALL-1 cell growth in a cell viability assay.

23132-87 = assay: cells; format: functional, cell-based; conditions: Homo sapiens
Description: SANGER: Inhibition of human 23132-87 cell growth in a cell viability assay.

647-V = assay: cells; format: functional, cell-based; conditions: Homo sapiens;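 also: growth inhibition of 647-V cells, read out with a cell viability assay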
Description: SANGER: Inhibition of human 647-V cell growth in a cell viability assay.

769-P = assay: cells; format: functional, cell-based; conditions: Homo sapiens
Description: SANGER: Inhibition of human 769-P cell growth in a cell viability assay.

786-0 = assay: cells; format: functional, cell-based; conditions: Homo sapiens
Description: SANGER: Inhibition of human 786-0 cell growth in a cell viability assay.

8505C = assay: cells; format: functional, cell-based; conditions: Homo sapiens
Description: SANGER: Inhibition of human 8505C cell growth in a cell viability assay.

A 172 = assay: cells; format: functional, cell-based; conditions: Homo sapiens;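 also: growth inhibition of A172 cells, measured with a cell viability readout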
Description: SANGER: Inhibition of human A172 cell growth in a cell viability assay.

A-375 = assay: cells; format: functional, cell-based; conditions: Homo sapiens;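 also: growth inhibition of A375 cells, read out with a cell viability assay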
Description: SANGER: Inhibition of human A375 cell growth in a cell viability assay.

BFTC-905 = assay: cells; format: functional, cell-based; conditions: Homo sapiens
Description: SANGER: Inhibition of human BFTC-905 cell growth in a cell viability assay.

BHY = assay: cells; format: functional, cell-based; conditions: Homo sapiens;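 also: cell growth inhibition read out by a viability assay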
Description: SANGER: Inhibition of human BHY cell growth in a cell viability assay.

BL-41 = assay: cells; format: functional, cell-based; conditions: Homo sapiens;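 also: growth inhibition of human BL-41 cells, read out with a cell viability assay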
Description: SANGER: Inhibition of human BL-41 cell growth in a cell viability assay.

BL-70 = assay: SANGER: Inhibition of human BL-70 cell growth in a cell viability assay.; format: functional, cell-based
CAL-12T = assay: cells; format: functional, cell-based, Homo sapiens; conditions: Homo sapiens, CAL-12T;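 also: growth inhibition of human CAL-12T cells, read out with a cell viability assay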
Description: SANGER: Inhibition of human CAL-12T cell growth in a cell viability assay.

CAL-27 = assay: cells; format: functional, cell-based; conditions: Homo sapiens;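 also: Viability-based readout, IC50 reflecting inhibition of CAL-27 cell growth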
Description: SANGER: Inhibition of human CAL-27 cell growth in a cell viability assay.

CAL-54 = assay: cells; format: functional, cell-based; conditions: Homo sapiens;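 also: growth inhibition of CAL-54 cells, read out by a viability measurement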
Description: SANGER: Inhibition of human CAL-54 cell growth in a cell viability assay.

UO-31 = assay: cells; format: functional, cell-based; conditions: Homo sapiens
Description: SANGER: Inhibition of human U031 cell growth in a cell viability assay.

VMRC-RCZ = assay: cells; format: functional, cell-based; conditions: Homo sapiens
Description: SANGER: Inhibition of human VMRC-RCZ cell growth in a cell viability assay.

YT = assay: cells; format: functional, cell-based; conditions: Homo sapiens
Description: SANGER: Inhibition of human YT cell growth in a cell viability assay.

Compound CO[C@@]12[C@H](COC(N)=O)C3=C(C(=O)C(C)=C(N)C3=O)N1C[C@@H]1N[C@@H]12 [MITOMYCIN] has an IC50 (COLO-792) of 1500 nM, an IC50 (COR-L105) of 1610 nM and an IC50 (Calu-3) of 321 nM. The IC50 (D-542MG) was 602 nM, the IC50 (EB2) was 65.4 nM and the IC50 (ESS-1) was < 62.5 nM. The IC50 (GMS-10) was 3840 nM, the IC50 (HCC1599) was 120 nM and the IC50 (HCC1937) was 594 nM. The IC50 (HN) was 783 nM, the IC50 (HO-1-N-1) was 441 nM and the IC50 (HOS) was 107 nM. It also gave an IC50 (HT-1376) of 967 nM, an IC50 (HTC-C3) of 5790 nM and an IC50 (KYSE-150 cell line) of 34.1 nM. The IC50 (LK-2) was 358 nM, the IC50 (LP-1) was 4560 nM and the IC50 (MDA-MB-231) was 3240 nM. It also gave an IC50 (MDA-MB-415) of 724 nM, an IC50 (MFE-280) of 8350 nM and an IC50 (MONO-MAC-6) of 72.4 nM. For the same compound, the IC50 (MRK-nu-1) was 110 nM, the IC50 (NB12) was 1200 nM and the IC50 (NCI-H1694) was 415 nM. The IC50 (NCI-H1963) was 974 nM, the IC50 (NCI-H2030) was 211 nM and the IC50 (NCI-H2170) was < 62.5 nM. The IC50 (NCI-H2228) was < 62.5 nM, the IC50 (NCI-H345) was 4730 nM and the IC50 (NCI-H522) was 169 nM. The IC50 (NCI-H596) was 1540 nM, the IC50 (NCI-H889) was 2480 nM and the IC50 (NY) was 657 nM. It also gave an IC50 (OVCAR-5) of 487 nM, an IC50 (P31-FUJ) of 3460 nM and an IC50 (PF-382) of 251 nM. The IC50 (RD) was 1900 nM, the IC50 (RERF-LC-MS) was 1030 nM and the IC50 (RPMI-2650) was 196 nM. For the same compound, the IC50 (SK-HEP1) was 646 nM, the IC50 (SK-MEL-30) was 474 nM and the IC50 (SK-OV-3) was 143 nM. The IC50 (SNU-449) was 3360 nM, the IC50 (SW1990) was 637 nM and the IC50 (SW626) was 286 nM. The IC50 (SW756) was 597 nM, the IC50 (SiHa) was 1890 nM and the IC50 (TALL-1) was 2400 nM. The IC50 (23132-87) was 30.5 nM, the IC50 (647-V) was 87.4 nM and the IC50 (769-P) was < 62.5 nM. For the same compound, the IC50 (786-0) was < 62.5 nM, the IC50 (8505C) was 430 nM and the IC50 (A 172) was 538 nM. The IC50 (A-375) was 139 nM, the IC50 (BFTC-905) was 92.7 nM and the IC50 (BHY) was 75.3 nM. For the same compound, the IC50 (BL-41) was 295 nM, the IC50 (BL-70) was 1280 nM and the IC50 (CAL-12T) was 491 nM. The IC50 (CAL-27) was 41.2 nM, the IC50 (CAL-54) was 1840 nM and the IC50 (UO-31) was 366 nM. The IC50 (VMRC-RCZ) was 199 nM and the IC50 (YT) was 463 nM.

In the case of N#C/C(=C1/Nc2ccccc2S1)c1ccnc(NCCc2cccnc2)n1, the IC50 (COLO-792) is reported as > 8000 nM, the IC50 (COR-L105) is reported as 1770 nM and the IC50 (Calu-3) is reported as > 8000 nM. For the same compound, the IC50 (D-542MG) was > 8000 nM, the IC50 (EB2) was > 8000 nM and the IC50 (ESS-1) was 6490 nM. The IC50 (GMS-10) was > 8000 nM, the IC50 (HCC1599) was > 8000 nM and the IC50 (HCC1937) was 3250 nM. For the same compound, the IC50 (HN) was > 8000 nM, the IC50 (HO-1-N-1) was > 8000 nM and the IC50 (HOS) was > 8000 nM. For the same compound, the IC50 (HT-1376) was 7320 nM, the IC50 (HTC-C3) was 6520 nM and the IC50 (KYSE-150 cell line) was > 8000 nM. The IC50 (LK-2) was 6530 nM, the IC50 (LP-1) was > 8000 nM and the IC50 (MDA-MB-231) was > 8000 nM. For the same compound, the IC50 (MDA-MB-415) was > 8000 nM, the IC50 (MFE-280) was > 8000 nM and the IC50 (MONO-MAC-6) was > 8000 nM. The IC50 (MRK-nu-1) was > 8000 nM, the IC50 (NB12) was > 8000 nM and the IC50 (NCI-H1694) was > 8000 nM. For the same compound, the IC50 (NCI-H1963) was > 8000 nM, the IC50 (NCI-H2030) was > 8000 nM and the IC50 (NCI-H2170) was > 8000 nM. For the same compound, the IC50 (NCI-H2228) was 4480 nM, the IC50 (NCI-H345) was > 8000 nM and the IC50 (NCI-H522) was 4930 nM. The IC50 (NCI-H596) was > 8000 nM, the IC50 (NCI-H889) was > 8000 nM and the IC50 (NY) was 2760 nM. The IC50 (OVCAR-5) was > 8000 nM, the IC50 (P31-FUJ) was > 8000 nM and the IC50 (PF-382) was > 8000 nM. For the same compound, the IC50 (RD) was > 8000 nM, the IC50 (RERF-LC-MS) was > 8000 nM and the IC50 (RPMI-2650) was 2580 nM. For the same compound, the IC50 (SK-HEP1) was 4860 nM, the IC50 (SK-MEL-30) was > 8000 nM and the IC50 (SK-OV-3) was > 8000 nM. For the same compound, the IC50 (SNU-449) was 4870 nM, the IC50 (SW1990) was > 8000 nM and the IC50 (SW626) was 5870 nM. The IC50 (SW756) was > 8000 nM, the IC50 (SiHa) was > 8000 nM and the IC50 (TALL-1) was > 8000 nM. For the same compound, the IC50 (23132-87) was 7100 nM, the IC50 (647-V) was > 8000 nM and the IC50 (769-P) was > 8000 nM. For the same compound, the IC50 (786-0) was 3080 nM, the IC50 (8505C) was 2900 nM and the IC50 (A 172) was 2160 nM. The IC50 (A-375) was > 8000 nM, the IC50 (BFTC-905) was 3370 nM and the IC50 (BHY) was > 8000 nM. The IC50 (BL-41) was 7640 nM, the IC50 (BL-70) was 4850 nM and the IC50 (CAL-12T) was 1300 nM. The IC50 (CAL-27) was > 8000 nM, the IC50 (CAL-54) was > 8000 nM and the IC50 (UO-31) was 7200 nM. For the same compound, the IC50 (VMRC-RCZ) was 7770 nM and the IC50 (YT) was > 8000 nM.
